This is an account of results in patent US20240217990A1 (Gilead Sciences, Inc., priority 2021, published 2024).

For assay [1], the target named is T1, TLR7 (Homo sapiens, UniProt Q9NYK1).
T1 construct: Human peripheral blood mononuclear cells (PBMCs) consist of lymphocytes, monocytes and dendritic cells that express TLR7, TLR8 and TLR9; endogenous in cells; host or cells: cryopreserved human PBMCs from healthy donors
T1 sequence (Q9NYK1 27-1049): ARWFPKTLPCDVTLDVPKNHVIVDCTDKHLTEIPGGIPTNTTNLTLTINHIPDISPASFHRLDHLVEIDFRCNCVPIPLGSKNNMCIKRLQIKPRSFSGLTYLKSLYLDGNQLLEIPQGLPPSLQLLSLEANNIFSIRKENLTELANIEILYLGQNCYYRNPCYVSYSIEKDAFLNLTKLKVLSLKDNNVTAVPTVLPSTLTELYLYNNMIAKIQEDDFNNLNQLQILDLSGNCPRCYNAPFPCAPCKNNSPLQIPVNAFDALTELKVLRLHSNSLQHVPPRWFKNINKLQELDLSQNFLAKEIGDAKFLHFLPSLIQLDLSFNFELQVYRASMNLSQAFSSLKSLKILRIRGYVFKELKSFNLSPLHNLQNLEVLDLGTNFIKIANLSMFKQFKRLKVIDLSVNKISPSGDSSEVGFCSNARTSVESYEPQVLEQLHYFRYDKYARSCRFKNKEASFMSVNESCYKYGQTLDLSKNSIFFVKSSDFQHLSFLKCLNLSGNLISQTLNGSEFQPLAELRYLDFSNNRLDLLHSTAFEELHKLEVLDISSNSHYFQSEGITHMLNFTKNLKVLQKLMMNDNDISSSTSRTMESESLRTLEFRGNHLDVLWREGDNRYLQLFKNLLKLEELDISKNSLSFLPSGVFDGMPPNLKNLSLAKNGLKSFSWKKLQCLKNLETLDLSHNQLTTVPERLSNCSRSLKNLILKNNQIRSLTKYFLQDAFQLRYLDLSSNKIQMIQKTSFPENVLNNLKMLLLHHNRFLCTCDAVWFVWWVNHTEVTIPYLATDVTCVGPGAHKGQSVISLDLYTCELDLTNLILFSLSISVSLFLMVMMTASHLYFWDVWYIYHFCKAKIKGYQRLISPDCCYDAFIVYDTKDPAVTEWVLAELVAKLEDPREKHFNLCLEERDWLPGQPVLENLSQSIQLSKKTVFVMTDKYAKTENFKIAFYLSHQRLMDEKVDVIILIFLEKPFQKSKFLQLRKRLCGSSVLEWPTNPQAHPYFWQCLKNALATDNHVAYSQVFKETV
Nature of the assay: TLR7 human PBMC cell-based assay (antagonist, GS-986 stimulated cytokine release). The conditions noted are these: human PBMCs; TLR7 agonist GS-986 400 nM, 6 hours; cytokines (IL-6 and IFNα) in supernatant; read-out: TLR-7 EC50. The essentials:
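Cryopreserved healthy-donor PBMCs (100,000/well, RPMI-1640 + 10% FBS) pre-incubated 1 h at 37 °C with antagonist (10-point dose response, quadruplicate), then stimulated 6 h with GS-986 at 400 nM final. Supernatant IL-6 and IFNα measured by electrochemiluminescence immunoassay; EC50 from sigmoidal fit.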

In assay [2] the target is T2, TLR8 (Homo sapiens, UniProt Q9NR97).
T2 construct: Human peripheral blood mononuclear cells (PBMCs) consist of lymphocytes, monocytes and dendritic cells that express TLR7, TLR8 and TLR9; endogenous in cells; host or cells: cryopreserved human PBMCs from healthy donors
T2 sequence (Q9NR97 27-1041): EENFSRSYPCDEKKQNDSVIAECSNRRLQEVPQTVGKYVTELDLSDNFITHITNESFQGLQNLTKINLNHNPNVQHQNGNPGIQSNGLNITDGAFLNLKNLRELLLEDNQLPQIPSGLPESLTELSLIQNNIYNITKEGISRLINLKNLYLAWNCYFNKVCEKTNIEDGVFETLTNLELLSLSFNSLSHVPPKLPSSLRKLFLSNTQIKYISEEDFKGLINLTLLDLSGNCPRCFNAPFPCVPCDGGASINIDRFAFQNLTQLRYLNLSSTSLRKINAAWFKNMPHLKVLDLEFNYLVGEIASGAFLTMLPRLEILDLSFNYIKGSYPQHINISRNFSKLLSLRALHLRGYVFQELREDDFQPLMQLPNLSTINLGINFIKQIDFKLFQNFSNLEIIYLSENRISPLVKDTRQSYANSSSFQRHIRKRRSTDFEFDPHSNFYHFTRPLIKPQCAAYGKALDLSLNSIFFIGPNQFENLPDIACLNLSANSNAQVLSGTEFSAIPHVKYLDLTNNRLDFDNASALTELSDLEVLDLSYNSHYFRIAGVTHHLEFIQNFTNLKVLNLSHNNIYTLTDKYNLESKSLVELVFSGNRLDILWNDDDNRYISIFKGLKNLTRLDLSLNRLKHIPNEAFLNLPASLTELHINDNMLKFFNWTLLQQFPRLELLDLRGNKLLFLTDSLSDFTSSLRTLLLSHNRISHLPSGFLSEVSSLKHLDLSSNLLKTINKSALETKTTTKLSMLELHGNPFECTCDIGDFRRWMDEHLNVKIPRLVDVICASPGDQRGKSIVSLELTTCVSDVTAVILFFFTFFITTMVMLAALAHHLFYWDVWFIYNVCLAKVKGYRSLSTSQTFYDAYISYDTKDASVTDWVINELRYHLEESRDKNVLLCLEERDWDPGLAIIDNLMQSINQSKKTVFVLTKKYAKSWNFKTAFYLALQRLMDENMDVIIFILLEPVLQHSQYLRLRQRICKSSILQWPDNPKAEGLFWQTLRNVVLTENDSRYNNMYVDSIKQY
Description: TLR8 human PBMC cell-based assay (antagonist, Compound A stimulated cytokine release). Particulars: human PBMCs; TLR8 agonist Compound A 800 nM, 6 hours; cytokines (TNFa and IL 12p40) in supernatant; read-out: TLR-8 EC50. The essentials: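 Cryopreserved donor PBMCs (100,000/well, RPMI + 10% FBS) were preincubated 1 h with antagonist (10-point dose response, quadruplicate), then stimulated with Compound A (800 nM final) for 6 h at 37 °C. TNFa and IL-12p40 in supernatants were measured by electrochemiluminescence; sigmoidal fits gave EC50.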

A word on the EC50: it is the concentration needed to bring the measured effect to its halfway point.

On to `Cc1cc(-c2[nH]c3cc(C(=O)N(C)C4CCN(CCC#N)CC4)sc3c2C(C)C)cn2ncnc12` [Example 183], for which the results for the 50% effective concentration (EC50) in assay [1] and in assay [2] were 17.5 nM and 32.4 nM, respectively.

Turning to `Cc1cc(-c2[nH]c3cc(C4CCN(S(=O)(=O)C5CCNCC5)CC4)sc3c2C(C)C)cn2ncnc12` [Example 184], the EC50 in assay [1] worked out at 0.2 nM; in assay [2], 2.8 nM.

For the molecule `Cc1cc(-c2[nH]c3cc(C4CCC5(CC4)CN(C(=O)CN(C)C)C5)sc3c2C(C)C)cn2ncnc12` [Example 185], the EC50 in assay [1] was 0.2 nM; in assay [2], 8.7 nM.

For the molecule `Cc1cc(-c2[nH]c3cc(C4CCN(CC5(C)COC5)CC4)sc3c2C(C)C)cn2ncnc12` [Example 186, 6-isopropyl-5-(8-methyl-[1,2,4]triazolo[1,5-a]pyridin-6-yl)-2-(1-((3-methyloxetan-3-yl)methyl)piperidin-4-yl)-4H-thieno[3,2-b]pyrrole], the half-maximal effective concentration (EC50) stood at 2.1 nM in assay [1] and 3.1 nM in assay [2].

`Cc1cc(-c2[nH]c3cc(C4CCN(CCO)CC4)sc3c2C(C)C)cn2ncnc12` [Example 187, 2-(4-(6-isopropyl-5-(8-methyl-[1,2,4]triazolo[1,5-a]pyridin-6-yl)-4H-thieno[3,2-b]pyrrol-2-yl)piperidin-1-yl)ethan-1-ol]: the EC50 in assay [1] was determined as 1.6 nM; in assay [2] it was 0.6 nM.

For the molecule `Cc1cc(-c2[nH]c3cc(-c4ccc5c(c4)CN(CCO)CC5)sc3c2C(C)C)cn2ncnc12` [Example 188], the EC50 in assay [1] turned out to be 1.3 nM; in assay [2] it was 0.3 nM.

For `Cc1cc(-c2[nH]c3cc(-c4cnn(C5CCN(CCO)CC5)c4)sc3c2C(C)C)cn2ncnc12` [Example 189], the EC50 is 1.3 nM in assay [1] and 0.7 nM in assay [2].

Consider `Cc1cc(-c2[nH]c3cc(-c4cnc5c(c4)CN(CCO)CC5)sc3c2C(C)C)cn2ncnc12` [Example 190], for which the figures for the EC50 in assay [1] and in assay [2] were 2.4 nM and 0.5 nM, respectively.

As for `Cc1cc(-c2[nH]c3cc(C4CCC5(CC4)CN(CCO)C5)sc3c2C(C)C)cn2ncnc12` [Example 191], the half-maximal effective concentration (EC50) in assay [1] came to 0.2 nM; in assay [2], 1 nM.

Turning to `Cc1c(-c2[nH]c3cc(C(=O)N(C)C4CCN(CCO)CC4)sc3c2C(C)C)cn2ncnc2c1C` [Example 192], the EC50 in assay [1] amounted to 1.2 nM; in assay [2] it was 0.5 nM.

For `Cc1cc(CN2CCC(c3cc4[nH]c(-c5cc(C)c6ncnn6c5)c(C(C)C)c4s3)CC2)no1` [Example 193], the EC50 in assay [1] came to 18.2 nM; in assay [2], 12.3 nM.

Regarding `Cc1cc(-c2[nH]c3cc(C4CCN(Cc5ccn(C)n5)CC4)sc3c2C(C)C)cn2ncnc12` [Example 194], the EC50 in assay [1] stood at 4.5 nM; in assay [2] it was 0.6 nM.

In the case of `Cc1cc(-c2[nH]c3cc(C4CCN(C5CCC5)CC4)sc3c2C(C)C)cn2ncnc12` [Example 195], the EC50 in assay [1] worked out at 2.5 nM; in assay [2], 0.3 nM.

As for `Cc1cc(-c2[nH]c3cc(C4CCN(C(=O)CN5CCCC5)CC4)sc3c2C(C)C)cn2ncnc12` [Example 196, 1-(4-(6-isopropyl-5-(8-methyl-[1,2,4]triazolo[1,5-a]pyridin-6-yl)-4H-thieno[3,2-b]pyrrol-2-yl)piperidin-1-yl)-2-(pyrrolidin-1-yl)ethan-1-one], the 50% effective concentration (EC50) in assay [1] amounted to 1.3 nM; in assay [2], 4.2 nM.

As to `Cc1cc(-c2[nH]c3cc(C4CCN(C(=O)C5(N)CCC5)CC4)sc3c2C(C)C)cn2ncnc12` [Example 197], the results for the concentration for a half-maximal effect (EC50) in assay [1] and in assay [2] were 33.1 nM and 79.7 nM, respectively.

Regarding `Cc1cc(-c2[nH]c3cc(C4CCN(C(=O)[C@H]5CCCN5C)CC4)sc3c2C(C)C)cn2ncnc12` [Example 199], the EC50 in assay [1] was 3.9 nM; in assay [2], 5.3 nM.

Take `Cc1cc(-c2[nH]c3cc(C4CCN(C(=O)[C@@H]5CCCN5C)CC4)sc3c2C(C)C)cn2ncnc12` [Example 200]: the EC50 in assay [1] came out at 3.8 nM; in assay [2], 10 nM.

For the molecule `Cc1cc(-c2[nH]c3cc(C4CCN(C(=O)C5CCN(C)C5)CC4)sc3c2C(C)C)cn2ncnc12` (stereo not shown) [Example 201], the concentration giving a half-maximal response (EC50) in assay [1] came out at 0.7 nM; in assay [2], 8.6 nM.

Turning to `Cc1cc(-c2[nH]c3cc(C4CCN(C(=O)C5CNC5)CC4)sc3c2C(C)C)cn2ncnc12` [Example 202], the values for the concentration for a half-maximal effect (EC50) in assay [1] and in assay [2] were 1.5 nM and 23.8 nM, respectively.

Turning to `Cc1cc(-c2[nH]c3cc(C4CCN(C(=O)C5CCCN(C)C5)CC4)sc3c2C(C)C)cn2ncnc12` (stereo not shown) [Example 203], the EC50 worked out at 0.4 nM in assay [1] and 5.6 nM in assay [2].

Regarding `Cc1cc(-c2[nH]c3cc(C4CCN(C(=O)C5CN6CCC5CC6)CC4)sc3c2C(C)C)cn2ncnc12` (stereo not shown) [Example 204], the EC50 came out at 0.5 nM in assay [1] and 9.9 nM in assay [2].

As for `Cc1cc(-c2[nH]c3cc(C4CCN(C(=O)[C@H]5CCN(C)C5)CC4)sc3c2C(C)C)cn2ncnc12` [Example 205], the EC50 in assay [1] came to 0.5 nM; in assay [2] it was 9 nM.

Turning to `Cc1cc(-c2[nH]c3cc(C4CCC5(CC4)CN(C(=O)[C@@H]4CCCN4C)C5)sc3c2C(C)C)cn2ncnc12` [Example 206], the EC50 in assay [1] amounted to 0.3 nM; in assay [2], 15.4 nM.

In the case of `Cc1cc(-c2[nH]c3cc(C4CCC5(CC4)CN(C(=O)[C@H]4CCCN4C)C5)sc3c2C(C)C)cn2ncnc12` [Example 207], the results for the concentration for a half-maximal effect (EC50) in assay [1] and in assay [2] were 0.7 nM and 19.9 nM, respectively.

Regarding `Cc1cc(-c2[nH]c3cc(C4CCC5(CC4)CN(C(=O)CN4CCCC4)C5)sc3c2C(C)C)cn2ncnc12` [Example 208], the EC50 turned out to be 0.3 nM in assay [1] and 12.3 nM in assay [2].

For the molecule `Cc1cc(-c2[nH]c3cc(-c4ccc5c(c4)CNC5)sc3c2C(C)C)cn2ncnc12` [Example 209, 2-(isoindolin-5-yl)-6-isopropyl-5-(8-methyl-[1,2,4]triazolo[1,5-a]pyridin-6-yl)-4H-thieno[3,2-b]pyrrole], the concentration for a half-maximal effect (EC50) in assay [1] was found to be 15.4 nM; in assay [2], 1.7 nM.

As for `Cc1cc(-c2[nH]c3cc(-c4ccc(N5CCNCC5)nc4)sc3c2C(C)C)cn2ncnc12` [Example 210], the EC50 was 0.5 nM in assay [1] and 2.3 nM in assay [2].

Consider `Cc1cc(-c2[nH]c3cc(-c4ccc5c(c4)CNCC5)sc3c2C(C)C)cn2ncnc12` [Example 211], for which the EC50 in assay [1] is 1.9 nM; in assay [2], 0.5 nM.

Take `Cc1cc(-c2[nH]c3cc(-c4ccc5nc(C6N[C@@H]7CC[C@H]6C7)[nH]c5c4)sc3c2C(C)C)cn2ncnc12` (stereo partly shown) [Example 212]: the EC50 in assay [1] is 0.2 nM; in assay [2], 1.6 nM.
